According to patent publication US20120157401A1, “METHODS FOR TREATING NEUROFIBROMATOSIS” (PTC Therapeutics, Inc., priority 2009, published 2012):
pEC50: −log10 of the molar value. Where two headings read alike, the source gives them in different places.

Test system: hypoxia-inducible endogenous VEGF expression
Test: Hypoxia-inducible endogenous VEGF expression ELISA in HeLa cells, dose-response EC50 (Table 3)
Type: cell-based, human
Settings: Homo sapiens; for pEC50: HeLa cells, hypoxic conditions (1% O2), read-out: ELISA EC50; for EC50: HeLa, read-out: ELISA EC50 μM
How it was run: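 HeLa cells kept 24-48 h under hypoxia (1% O2, 5% CO2, nitrogen balance) with or without compound, e.g. seven concentrations; secreted VEGF in conditioned medium quantified by ELISA against a standard curve. Parallel Cell Titer Glo viability under identical conditions excludes cytotoxicity.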

[1] = 24-48 hours, VEGF in conditioned media
[2] = VEGF ELISA of conditioned media

SMILES	pEC50 [1]	EC50 [µM]	also measured
COC(=O)c1ccc(C2c3[nH]c4ccc(Cl)cc4c3CCN2C(=O)Oc2ccccc2Cl)cc1 (stereo not drawn) [Compound 590]	7.40 to 8.10		
[H]/N=c1\sc(C)cn1CCOc1ccc([C@H]2c3[nH]c4ccc(Cl)cc4c3CCN2C(=O)Oc2ccc(Cl)cc2)cc1 [Compound 1568]			pEC50 [2]: 7.40 to 8.10
O=C(Oc1ccccc1Cl)N1CCc2c([nH]c3ccc(Cl)cc23)C1c1ccc(OCCCCl)cc1 (stereo not drawn) [Compound 713]	7.40 to 8.10		
O=C(Oc1ccccc1)N1CCc2c([nH]c3ccc(Cl)cc23)C1c1ccc(OCCCCl)cc1 (stereo not drawn) [Compound 710]	> 8.10		
CC(=O)N1CCN(CCCOc2ccc(C3c4[nH]c5ccc(Cl)cc5c4CCN3C(=O)Oc3ccc(F)cc3)cc2)CC1 (stereo not drawn) [Compound 988]		< 0.008	
Cc1ccc(OC(=O)N2CCc3c([nH]c4ccc(Cl)cc34)[C@@H]2c2ccc(OCC(C)(CO)CO)cc2)cc1 [Compound 1297]	7.40 to 8.10		
[H]/N=c1\sccn1CCOc1ccc(C2c3[nH]c4ccc(Cl)cc4c3CCN2C(=O)Oc2ccc(F)cc2)cc1 (stereo not drawn) [Compound 1391]			pEC50 [2]: > 8.10
COCCOCCOc1ccc(C2c3[nH]c4ccc(Cl)cc4c3CCN2C(=O)Oc2ccc(F)cc2)cc1 (stereo not drawn) [Compound 673]	7.40 to 8.10		
CN1CCN(CCCOc2ccc(C3c4[nH]c5ccc(Cl)cc5c4CCN3C(=O)Oc3ccccc3)cc2)CC1 (stereo not drawn) [Compound 1076]		0.04 to 0.2	
O=C(Oc1ccc(F)cc1)N1CCc2c([nH]c3ccc(Cl)cc23)C1c1ccc(OCCCCN2CCCCC2)cc1 (stereo not drawn) [Compound 739]		< 0.008	
CCCOC(=O)NCC(O)COc1ccc(C2c3[nH]c4ccc(Cl)cc4c3CCN2C(=O)Oc2ccc(Cl)cc2)cc1 (stereo not drawn) [Compound 1563]			pEC50 [2]: 7.40 to 8.10
O=C(Oc1ccc(Cl)cc1)N1CCc2c([nH]c3ccc(Cl)cc23)C1c1ccc(OCCCCCCN2CCOCC2)cc1 (stereo not drawn) [Compound 786]		< 0.008	
O=C(Oc1ccc(Cl)cc1)N1CCc2c([nH]c3ccc(Cl)cc23)C1c1ccc(OCCO)cc1 (stereo not drawn) [Compound 571]	6.00 to 6.70		
N#Cc1cn(CCOc2ccc(C3c4[nH]c5ccc(Cl)cc5c4CCN3C(=O)Oc3ccc(F)cc3)cc2)nc1N (stereo not drawn) [Compound 1441]			pEC50 [2]: 7.40 to 8.10
COc1ccc(OC(=O)N2CCc3c([nH]c4ccc(Cl)cc34)C2c2ccc(OC)cc2F)cc1 (stereo not drawn) [Compound 1267]	7.40 to 8.10		
COc1ccc(OC(=O)N2CCc3c([nH]c4ccc(Cl)cc34)C2c2ccc(OCCCN3CCOCC3)c(OC)c2)cc1 (stereo not drawn) [Compound 1131]		0.008 to 0.04	
COc1cc(C2c3[nH]c4ccc(Cl)cc4c3CCN2C(=O)Oc2ccc(C)cc2)ccc1OCCCn1nccn1 (stereo not drawn) [Compound 1194]	> 8.10		

SMILES	pEC50 [1]	EC50 [µM]	also measured
C=CCOc1ccc([C@H]2c3[nH]c4ccc(Cl)cc4c3CCN2C(=O)Oc2ccc(Cl)cc2)cc1 [Compound 1159]	> 8.10		
CCCN(CCC)CCCOc1ccc([C@H]2c3[nH]c4ccc(Cl)cc4c3CCN2C(=O)Oc2ccc(Cl)cc2)cc1 [Compound 1234]		< 0.008	
O=C(OCCN1CCOCC1)N1CCC(Oc2ccc([C@H]3c4[nH]c5ccc(Cl)cc5c4CCN3C(=O)Oc3ccc(Cl)cc3)cc2)CC1 [Compound 1693]		< 0.008	
Nc1ccn(CCOc2ccc(C3c4[nH]c5ccc(Cl)cc5c4CCN3C(=O)Oc3ccc(F)cc3)cc2)n1 (stereo not drawn) [Compound 1413]			pEC50 [2]: > 8.10
O=C(Oc1ccc(Cl)cc1)N1CCc2c([nH]c3ccc(Cl)cc23)C1c1ccc(OC(CO)CO)cc1 (stereo not drawn) [Compound 1231]	7.40 to 8.10		
O=C(Oc1ccc(F)cc1)N1CCc2c([nH]c3ccc(Cl)cc23)C1c1ccc(OCC(O)CN2CCSCC2)cc1 (stereo not drawn) [Compound 925]		< 0.008	
O=C(Oc1ccc(F)cc1)N1CCc2c([nH]c3ccc(Cl)cc23)C1c1ccc(OCC2CO2)cc1 (stereo not drawn) [Compound 967]	7.40 to 8.10		
CN1CCN(CCCOc2ccc(C3c4[nH]c5ccc(Cl)cc5c4CCN3C(=O)Oc3ccc(Cl)cc3)cc2)CC1 (stereo not drawn) [Compound 961]		0.008 to 0.04	
COCCN(CCOC)CC(O)COc1ccc(C2c3[nH]c4ccc(Cl)cc4c3CCN2C(=O)Oc2ccc(Cl)cc2)cc1 (stereo not drawn) [Compound 918]		< 0.008	
O=C(Oc1ccc(F)cc1)N1CCc2c([nH]c3ccc(Cl)cc23)C1c1cccc(OCCCn2ccnn2)c1 (stereo not drawn) [Compound 1125]	6.00 to 6.70		
O=C(Oc1ccc(Cl)cc1)N1CCc2c([nH]c3ccc(Cl)cc23)C1c1ccc(OCC2CO2)cc1 (stereo not drawn) [Compound 460]	7.40 to 8.10		
O=C(Oc1ccc(F)cc1)N1CCc2c([nH]c3ccc(Cl)cc23)C1c1ccc(OCCCn2ccnn2)cc1 (stereo not drawn) [Compound 995]	> 8.10		
NCC(O)COc1ccc(C2c3[nH]c4ccc(Cl)cc4c3CCN2C(=O)Oc2ccc(Cl)cc2)cc1 (stereo not drawn) [Compound 846]		0.04 to 0.2	
O=C(Oc1ccc(F)cc1)N1CCc2c([nH]c3ccc(Cl)cc23)C1c1ccc(OCC(O)Cn2nccn2)cc1 (stereo not drawn) [Compound 1067]	7.40 to 8.10		
CN1CCN(CCCOc2ccc(C3c4[nH]c5ccc(Cl)cc5c4CCN3C(=O)Oc3ccc(F)cc3)cc2)CC1 (stereo not drawn) [Compound 993]		< 0.008	
O=C(Oc1ccc(Br)cc1)N1CCc2c([nH]c3ccc(Cl)cc23)C1c1ccc(OCC2OCCO2)cc1 (stereo not drawn) [Compound 1054]	> 8.10		
